These results are taken from ChEMBL document CHEMBL4837263, “N-Aromatic-Substituted Indazole Derivatives as Brain-Penetrant and Orally Bioavailable JNK3 Inhibitors” (ACS Med Chem Lett, 2021).

Series [1] deals with Mitogen-activated protein kinase 8 (Homo sapiens, UniProt P45983). As to the kind of experiment: Inhibition of JNK1 (unknown origin) using biotinylated FL-ATF-2 as substrate measured after 22 mins by homogeneous time-resolved fluorescence analysis.
Series [2] deals with Mitogen-activated protein kinase 14 (Homo sapiens, UniProt Q16539). As to the kind of experiment: Inhibition of p38 alpha (unknown origin) using biotinylated FL-ATF-2 as substrate measured after 22 mins by homogeneous time-resolved fluorescence analysis.
Mitogen-activated protein kinase 14, sequence (Q16539 whole entry): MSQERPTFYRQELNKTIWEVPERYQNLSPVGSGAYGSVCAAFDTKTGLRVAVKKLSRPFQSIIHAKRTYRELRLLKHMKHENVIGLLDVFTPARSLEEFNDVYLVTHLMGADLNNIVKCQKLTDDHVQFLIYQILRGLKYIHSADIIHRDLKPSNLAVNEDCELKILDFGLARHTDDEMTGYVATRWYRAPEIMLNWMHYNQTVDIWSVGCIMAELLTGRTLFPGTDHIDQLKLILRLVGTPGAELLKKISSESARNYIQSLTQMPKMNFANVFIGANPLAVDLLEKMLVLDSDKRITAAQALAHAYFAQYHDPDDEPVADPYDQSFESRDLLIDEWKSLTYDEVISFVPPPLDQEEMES
The nature of series [3]: Selectivity index, ratio of IC50 for JNK1 (unknown origin) to IC50 for JNK3 (unknown origin).
A short description of series [4]: Selectivity index, ratio of IC50 for p38 alpha (unknown origin) to IC50 for JNK3 (unknown origin).
Series [5] concerns the target Mitogen-activated protein kinase 10 (Homo sapiens, UniProt P53779). The series is described as follows: Inhibition of JNK3alpha1 (unknown origin) using biotinylated FL-ATF-2 as substrate measured after 22 mins by homogeneous time-resolved fluorescence analysis.
For series [6], the target named is Mitogen-activated protein kinase 9 (Homo sapiens, UniProt P45984). As to the kind of experiment: Inhibition of JNK2 (unknown origin) using biotinylated FL-ATF-2 as substrate measured after 22 mins by homogeneous time-resolved fluorescence analysis.
Mitogen-activated protein kinase 9, sequence (P45984 whole entry): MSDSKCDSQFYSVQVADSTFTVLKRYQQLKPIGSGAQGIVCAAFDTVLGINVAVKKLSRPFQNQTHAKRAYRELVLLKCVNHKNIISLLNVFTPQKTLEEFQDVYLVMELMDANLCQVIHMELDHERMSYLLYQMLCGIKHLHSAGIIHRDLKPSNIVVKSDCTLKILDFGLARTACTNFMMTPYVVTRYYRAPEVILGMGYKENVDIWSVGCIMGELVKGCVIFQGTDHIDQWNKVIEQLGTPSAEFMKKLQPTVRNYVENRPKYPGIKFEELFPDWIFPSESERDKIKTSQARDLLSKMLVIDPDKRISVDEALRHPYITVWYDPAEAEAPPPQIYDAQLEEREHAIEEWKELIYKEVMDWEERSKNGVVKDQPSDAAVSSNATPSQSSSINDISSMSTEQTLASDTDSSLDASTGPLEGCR
Series [7] can be described thus: Stability in human liver microsome assessed as half life. In kind it is ADME. The note with it: liver microsomes. For orientation: Liver microsomes are vesicles of endoplasmic reticulum, rich in cytochrome P450 enzymes.
Series [8] can be described thus: Stability in mouse liver microsome assessed as half life. The series is classed as ADME. The note with it: liver microsomes.
The subject of the next series is SH-SY5Y. The series is described as follows: Cytotoxicity against human SH-SY5Y cells assessed as reduction in cell viability at 10 uM measured after 48 hrs by MTT assay. In kind it is cell-based. A general note: Tetrazolium assays rely on reduction of a dye to a coloured formazan, in cell work by metabolically active cells.
The nature of series [9]: Selectivity index, ratio of IC50 for JNK2 (unknown origin) to IC50 for JNK3 (unknown origin).
Series [10] addresses Voltage-gated inwardly rectifying potassium channel KCNH2 (Homo sapiens, UniProt Q12809). As to the kind of experiment: Inhibition of human ERG expressed in CHO cells at -80 mV holding potential by automated Qpatch electrophysiological method. (The patch-clamp technique gives a direct electrical read-out from membranes.)

Mitogen-activated protein kinase 10, sequence (P53779 whole entry): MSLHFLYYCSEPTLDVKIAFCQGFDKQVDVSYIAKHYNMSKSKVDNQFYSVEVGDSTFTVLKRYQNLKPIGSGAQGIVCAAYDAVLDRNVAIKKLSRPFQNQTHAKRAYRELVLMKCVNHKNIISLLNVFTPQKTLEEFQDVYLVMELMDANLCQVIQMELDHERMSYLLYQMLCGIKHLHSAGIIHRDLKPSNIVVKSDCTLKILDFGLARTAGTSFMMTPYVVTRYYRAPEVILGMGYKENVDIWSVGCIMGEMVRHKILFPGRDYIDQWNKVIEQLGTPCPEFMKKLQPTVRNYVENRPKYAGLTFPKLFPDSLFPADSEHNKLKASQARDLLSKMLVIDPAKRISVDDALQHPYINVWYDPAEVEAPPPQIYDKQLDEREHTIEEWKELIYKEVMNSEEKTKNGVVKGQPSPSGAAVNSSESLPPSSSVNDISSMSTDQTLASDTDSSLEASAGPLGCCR
Mitogen-activated protein kinase 8, sequence (P45983 whole entry): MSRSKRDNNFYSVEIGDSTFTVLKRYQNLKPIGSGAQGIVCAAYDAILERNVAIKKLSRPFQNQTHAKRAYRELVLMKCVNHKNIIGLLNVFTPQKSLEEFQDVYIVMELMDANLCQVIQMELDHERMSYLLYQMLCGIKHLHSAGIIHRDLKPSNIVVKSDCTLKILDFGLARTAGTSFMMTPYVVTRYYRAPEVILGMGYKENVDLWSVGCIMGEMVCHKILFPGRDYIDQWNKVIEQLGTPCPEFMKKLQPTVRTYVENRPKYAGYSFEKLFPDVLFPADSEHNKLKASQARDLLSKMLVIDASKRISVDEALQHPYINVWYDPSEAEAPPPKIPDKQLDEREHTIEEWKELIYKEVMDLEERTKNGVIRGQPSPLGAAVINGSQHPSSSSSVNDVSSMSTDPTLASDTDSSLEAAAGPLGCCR
Voltage-gated inwardly rectifying potassium channel KCNH2, sequence (Q12809 whole entry): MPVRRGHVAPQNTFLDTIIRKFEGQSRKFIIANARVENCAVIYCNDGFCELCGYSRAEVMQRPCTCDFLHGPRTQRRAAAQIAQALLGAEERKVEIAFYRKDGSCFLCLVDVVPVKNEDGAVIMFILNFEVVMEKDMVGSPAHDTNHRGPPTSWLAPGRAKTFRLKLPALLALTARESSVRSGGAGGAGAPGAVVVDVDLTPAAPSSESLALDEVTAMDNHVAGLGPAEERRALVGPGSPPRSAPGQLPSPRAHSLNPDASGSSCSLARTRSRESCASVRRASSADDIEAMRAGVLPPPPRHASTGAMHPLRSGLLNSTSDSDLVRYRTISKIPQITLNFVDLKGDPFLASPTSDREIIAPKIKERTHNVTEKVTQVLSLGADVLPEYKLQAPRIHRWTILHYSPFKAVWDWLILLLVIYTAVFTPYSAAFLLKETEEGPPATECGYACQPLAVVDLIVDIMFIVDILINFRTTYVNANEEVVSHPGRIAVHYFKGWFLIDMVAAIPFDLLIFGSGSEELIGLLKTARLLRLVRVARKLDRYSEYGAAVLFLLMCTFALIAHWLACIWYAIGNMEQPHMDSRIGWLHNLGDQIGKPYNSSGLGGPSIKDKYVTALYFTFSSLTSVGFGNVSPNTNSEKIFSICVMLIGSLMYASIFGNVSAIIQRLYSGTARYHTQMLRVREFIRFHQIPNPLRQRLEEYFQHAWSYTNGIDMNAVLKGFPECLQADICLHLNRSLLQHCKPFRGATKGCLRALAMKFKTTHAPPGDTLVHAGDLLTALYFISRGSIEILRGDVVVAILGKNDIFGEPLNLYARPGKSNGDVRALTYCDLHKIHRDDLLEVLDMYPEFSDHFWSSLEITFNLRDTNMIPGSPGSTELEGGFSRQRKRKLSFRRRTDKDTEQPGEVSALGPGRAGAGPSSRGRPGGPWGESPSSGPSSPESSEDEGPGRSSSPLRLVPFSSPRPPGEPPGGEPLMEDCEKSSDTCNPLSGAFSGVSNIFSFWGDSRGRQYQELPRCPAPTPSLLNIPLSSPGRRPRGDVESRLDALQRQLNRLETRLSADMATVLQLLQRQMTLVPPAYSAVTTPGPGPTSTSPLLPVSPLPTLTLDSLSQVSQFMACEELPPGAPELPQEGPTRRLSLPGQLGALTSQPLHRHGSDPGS

`O=C(NC1COC1)c1cc(-n2ncc3cc(Nc4ccccc4Cl)ncc32)cs1`: the IC50 (as a rule, the midpoint of a concentration-inhibition curve) in [1] stood at 0.69 µM; in series [2], 0.086 µM; in [5], 0.005 µM. Moreover, the Ratio IC50 came to 139 in series [3] and 17 in [4].

As for `CC(C)N1CC[C@@H](NC(=O)c2cc(-n3ncc4cc(Nc5ccccc5Cl)ccc43)cs2)C1`, the figures for the IC50 in [1], in [2] and in series [5] were 0.825 µM, 0.325 µM and 0.031 µM, respectively. In addition, the Ratio IC50 is 27 in series [3] and 10 in [4].

Take `Cc1nc2c(cnn2-c2csc(C(=O)NC3COC3)c2)cc1Nc1cc(F)ccc1Cl`: the results for the IC50 in series [1], in series [2] and in series [5] were over 10 µM, 2.89 µM and 1.07 µM, respectively.

Regarding `CNC(=O)c1cc(-n2ncc3cc(Nc4c(F)cccc4Cl)cnc32)cs1`, the IC50 in series [6] was determined as 0.052 µM; in [1], 0.213 µM; in [2], 0.106 µM; in series [5], 0.002 µM. Also, the values for the half-life in series [7] and in series [8] were 30 min and 22 min, respectively. For the same compound, in the series on SH-SY5Y, the Cell viability was 104%.

For the compound `CNC(=O)c1cc(-n2ncc3cc(Nc4c(F)cccc4Cl)c(F)cc32)cs1`, the IC50 in series [6] worked out at 0.029 µM; in series [1], 0.258 µM; in series [2], 0.024 µM; in series [5], 0.002 µM. The Ratio IC50 in [3] came to 129; in series [4] it was 12; in [9] it was 15.

On to `[2H]C([2H])([2H])N1CC[C@H](NC(=O)c2cc(-n3ncc4cc(Nc5ccccc5Cl)c(F)cc43)cs2)C1`, for which the IC50 was 0.285 µM in [1], 0.3 µM in series [2], under 1 µM in series [10] and 0.005 µM in [5].

In [6], `CNC(=O)c1cc(-n2ncc3cc(Oc4ccccc4Cl)ccc32)cs1` returned an IC50 of 1.02 µM. Also, the half-life (commonly the time in which the quantity being followed falls by half) in series [7] turned out to be 72 min; in [8], 15 min. Also, the Cell viability with SH-SY5Y is listed as 94%.

Regarding `O=C(N[C@H]1CCOC1)c1cc(-n2ncc3cc(Nc4ccccc4Cl)c(F)cc32)cs1`, the half-inhibitory concentration (IC50) came to 0.178 µM in series [1], 0.024 µM in series [2] and 0.002 µM in [5]. For the same compound, the Ratio IC50 in series [3] was determined as 89; in [4], 12.

In the case of `CN1CC[C@H](NC(=O)c2cc(-n3ncc4cc(Nc5ccccc5Cl)c(F)cc43)cs2)C1`, the Ratio IC50 in series [3] (tested as the 2H-labelled form) is 57; in series [4] (tested as the 2H-labelled form), 60.

Take `O=C(Nc1cnn(-c2csc(C(=O)NC3COC3)c2)c1)Nc1ccccc1Cl`: the IC50 is over 20 µM in series [2] and over 30 µM in series [10]. Further, the Cell viability in the series with SH-SY5Y is 104%.

Turning to `CC(C)NC(=O)c1cc(-n2ncc3cc(Nc4ccccc4Cl)c(F)cc32)cs1`, the IC50 in series [1] amounted to 0.4 µM; in series [2] it was 0.124 µM; in series [5], 0.002 µM. For the same compound, the Ratio IC50 in [3] amounted to 200; in [4], 62.

For the compound `Cc1nc2c(cnn2-c2csc(C(=O)NC3COC3)c2)cc1Nc1cccc(F)c1Cl`, the figures for the IC50 in series [1], in [2] and in [5] were over 10 µM, 1.42 µM and 0.169 µM, respectively. Besides, the Ratio IC50 in series [3] is over 59; in series [4] it was 8.

Regarding `[2H]C([2H])([2H])N1CC[C@H](NC(=O)c2cc(-n3ncc4cc(Nc5ccccc5Cl)ccc43)cs2)C1`, the IC50 in series [1] was 0.263 µM; in [2] it was 0.226 µM; in [10], under 1 µM; in series [5] it was 0.001 µM.

Take `CNC(=O)c1cc(-n2ncc3cc(Nc4c(F)cccc4Cl)ncc32)cs1`: the IC50 was 0.074 µM in [6], 0.26 µM in series [1], 0.057 µM in series [2] and 0.002 µM in series [5]. For the same compound, the Ratio IC50 was 130 in series [3], 28 in [4] and 37 in series [9].

As for `CNC(=O)c1cc(-n2ncc3cc(Nc4ccccc4Cl)c(OC)cc32)cs1`, the IC50 in [1] is 1.1 µM; in series [2], 0.16 µM; in series [5], 0.02 µM. Moreover, the results for the Ratio IC50 in series [3] and in series [4] were 55 and 8, respectively.

As for `CN1CC[C@H](NC(=O)c2cc(-n3ncc4cc(Nc5ccccc5Cl)ccc43)cs2)C1`, the Ratio IC50 in [3] (tested as the 2H-labelled form) worked out at 263; in series [4] (tested as the 2H-labelled form), 226.

For the compound `Cc1nc2c(cnn2-c2csc(C(=O)NC3COC3)c2)cc1Nc1ccc(F)cc1Cl`, the IC50 is 6 µM in series [1], 0.49 µM in series [2] and 0.079 µM in series [5]. For the same compound, the Ratio IC50 is 76 in series [3] and 6 in [4].

In the case of `COCCNC(=O)c1cc(-n2ncc3cc(Nc4ccccc4Cl)c(F)cc32)cs1`, the 50% inhibitory concentration (IC50) was determined as 0.169 µM in series [1], 0.041 µM in [2] and 0.003 µM in [5]. Further, the Ratio IC50 came out at 56 in series [3] and 14 in series [4].

`O=C(Nc1cnn(-c2cccc(C(=O)Nc3cnn(C4CCNC4)c3)c2)c1)Nc1ccccc1Cl` (stereo not given): the values for the IC50 in series [2] and in series [5] were over 20 µM and under 0.001 µM, respectively.

Regarding `O=C(NC1CCOCC1)c1cc(-n2ncc3cc(Nc4ccccc4Cl)c(F)cc32)cs1`, the values for the IC50 in [1], in series [2] and in series [5] were 0.12 µM, 0.047 µM and 0.002 µM, respectively. In addition, the Ratio IC50 in series [3] amounted to 60; in [4] it was 24.

As for `O=C(NC1CC1)c1cc(-n2ncc3cc(Nc4ccccc4Cl)c(F)cc32)cs1`, the IC50 in series [1] was 0.15 µM; in series [2], 0.014 µM; in series [5], 0.001 µM. Besides, the Ratio IC50 stood at 150 in series [3] and 14 in [4].

With `CNC(=O)c1cc(-n2ncc3cc(Nc4cccc(OC)c4Cl)c(C)nc32)cs1`, the IC50 in series [1], in [2] and in series [5] was over 10 µM each time.

Regarding `CC(=O)N1CC[C@H](NC(=O)c2cc(-n3ncc4cc(Nc5ccccc5Cl)c(F)cc43)cs2)C1`, the IC50 came out at 0.627 µM in series [1], 0.065 µM in series [2] and 0.004 µM in series [5]. Also, the Ratio IC50 in series [3] was 132; in series [4], 16.

Turning to `CNC(=O)c1cc(-n2ncc3nc(Nc4ccccc4Cl)ncc32)cs1`, in [5], inhibition was half-maximal at 1 µM (IC50).

With `O=C(NCC(F)F)c1cc(-n2ncc3cc(Nc4ccccc4Cl)c(F)cc32)cs1`, the IC50 in [1] was 0.333 µM; in series [2], 0.046 µM; in [5] it was 0.004 µM. Also, the figures for the Ratio IC50 in series [3] and in [4] were 83 and 12, respectively.

As for `O=C(NC1COC1)c1cc(-n2ncc3nc(Nc4ccccc4Cl)ccc32)cs1`, in series [5], half-maximal inhibition (IC50) was put at 0.1 µM.

As for `CNC(=O)c1cc(-n2ncc3cc(Nc4c(F)cccc4OC)c(F)cc32)cs1`, the values for the IC50 in [1], in [2] and in series [5] were 1.24 µM, 0.065 µM and 0.005 µM, respectively. The Ratio IC50 was 248 in series [3] and 13 in series [4].
